Experimental data reported in patent US20230129137A1, “USE OF TT-10-LOADED NANOPARTICLES FOR CARDIAC REPAIR” (THE UAB RESEARCH FOUNDATION, priority 2021, published 2023).
Entries after “also recorded” stand apart in the source; their conditions may differ.

Columns and labels:
[1] = tested on: YAP signaling pathway; test: YAP and phosphorylated YAP abundance by Western blot in hiPSC-CMs; format: cell-based, human; settings: 10 μM TT-10, 48 hours, with vs without TT-10
Description: (§1) The effect of TT-10 (FIG. 1A) on cardiomyocyte cell cycle activity and proliferation was determined by culturing human induced pluripotent stem cell-derived cardiomyocytes (hiPSC-CMs) in varying concentrations of TT-10 (0, 2 μM, 10 μM, 20 μM or 100 μM) for 48 hours and then evaluating the presence of markers for cell proliferation (Ki67 expression, FIG. 1B), S phase (BrdU incorporation, FIG. 1C), and M phase (histone 3 phosphorylation [PH3], FIG. 1D) of the cell cycle and for cytokinesis (Aurora B, FIG. 1E). […] The effect of TT-10 on YAP pathway activity was also evaluated via Western blot (FIG. 7): total Yap levels in hiPSC-CMs treated with or without TT-10 were similar, but phosphorylated Yap (p-Yap) was less abundant in TT-10-treated cells.
Western blot. hiPSC-CMs were lysed with M-PER Mammalian Protein Extraction Reagent (Thermo Fisher Scientific) supplemented with Halt Protease and Phosphatase Inhibitor Cocktail (Thermo Fisher Scientific). Extracted protein was quantified by BCA protein assay kit (Thermo Fisher Scientific) and denatured by heating at 95° C. for 10 minutes. Equal quantity of protein were loaded and separated by 4%-15% precast SDS-PAGE gels (Bio-Rad), and then transferred onto a polyvinylidene difluoride membrane (Bio-Rad). […] Protein signals were imaged with a Bio-Rad ChemiDoc System and analyzed by ImageJ. […]

[2] = tested on: cardiomyocytes; settings: cited from earlier work
[3] = tested on: hiPSC-CMs; test: cell cycle activity and proliferation markers in cultured hiPSC-CMs (immunofluorescence); format: cell-based, human; settings: TT-10 0, 2, 10, 20 or 100 μM, 48 hours
Description: FIGS. 1A-1E show TT-10 increased cell cycle activity and proliferation in cultured human pluripotent stem sell derived cardiomyocytes (hiPSC-CMs). (FIG. 1A) TT-10 (C11H10FN3OS2; molecular weight, 283.34 Da) contains 4 C═C, 1 C═N, and 1 C═O double bond. Maximum UV/Vis absorbance is approximately 200 nm. (FIGS. 1B-1E) hiPSC-CMs were cultured under standard conditions (—) or treated with varying concentrations of TT-10 (2 μM, 10 μM, 20 μM, or 100 μM) for 48 hours and immunofluorescently stained for the human isoform of cardiac troponin T (hcTnT). Nuclei were identified by staining with 4′,6′-diamidinio-2-phenylindole (DAPI) or with DAPI and Nkx2.5 antibodies. (FIG. 1B) Proliferation was evaluated via immunofluorescence costaining for antigen KI 67 (Ki67) and quantified as the percentage of Ki67-positive cells. (FIG. 1C) hiPSC-CMs in the S phase of the cell cycle were identified via immunofluorescence costaining for bromodeoxyuridine (BrdU) incorporation and quantified as the percentage of BrdU-positive cells. (FIG. 1D) hiPSC-CMs in the M phase of the cell cycle were identified via immunofluorescence costaining for histone 3 phosphorylation (PH3) and quantified as the percentage of PH3-positive cells. (FIG. 1E) hiPSC-CMs undergoing cytokinesis were identified via immunofluorescence costaining for Aurora B (AuB) and quantified as the percentage of AuB-positive cells. Scale bar: 20 μm. All experiments were repeated 5 times. […], 1-way ANOVA with Tukey's correction.
FIGS. 8A-8B show TT-10-NPs promoted proliferation in cultured hiPSC-CMs. hiPSC-CMs were cultured for 48 hours with or without 1 mg/mL coumarin-6-loaded TT-10-NPs (green); then, the cells were immunofluorescently stained for the human isoform of cardiac troponin I (hcTnI, gray), and nuclei were identified via DAPI staining (blue). Internalized NPs are identified with an arrow. Scale bar: 20 μm. (FIG. 8A) Proliferation was evaluated via immunofluorescence costaining for Ki67 and quantified as the percentage of Ki67-positive cells. (FIG. 8B) hiPSC-CMs in the M-phase of the cell cycle were identified via immunofluorescence costaining for PH3 and quantified as the percentage of PH3-positive cells. *P<0.01, Student's t-test; n=5 experiments.
The effect of TT-10 (FIG. 1A) on cardiomyocyte cell cycle activity and proliferation was determined by culturing human induced pluripotent stem cell-derived cardiomyocytes (hiPSC-CMs) in varying concentrations of TT-10 (0, 2 μM, 10 μM, 20 μM or 100 μM) for 48 hours and then evaluating the presence of markers for cell proliferation (Ki67 expression, FIG. 1B), S phase (BrdU incorporation, FIG. 1C), and M phase (histone 3 phosphorylation [PH3], FIG. 1D) of the cell cycle and for cytokinesis (Aurora B, FIG. 1E). […]

[4] = tested on: hiPSC-CMs; test: apoptosis of hiPSC-CMs by TUNEL staining; format: cell-based, human; settings: 10 μM TT-10
Description: (§2) FIGS. 2A-2B show TT-10 enhanced survival and nuclear Yap levels in cultured hiPSC-CMs. (FIG. 2A) Apoptosis was evaluated via TUNEL staining and quantified as the percentage of TUNEL-positive cells. (FIG. 2B) hiPSC-CMs were immunofluorescently costained for Yap, and the proportion of cells with Yap-positive nuclei is presented as a percentage. Scale bar: 20 μm. All experiments were repeated 5 times. *P<0.01, Student's t test.
as §1
TUNEL. TUNEL staining was performed with an in situ cell death detection kit (Roche). […] Apoptosis was quantified as the proportion of cells that were TUNEL positive.

[5] = tested on: mouse MI; settings: intraperitoneal injections of TT-10, mice after MI; cited from earlier work
[6] = tested on: Yap; test: nuclear Yap in hiPSC-CMs (immunofluorescence); format: cell-based, human; settings: 10 μM TT-10
Description: as §2, §1
Immunofluorescence. […] After staining, analyses were conducted with a fluorescence microscope.

## C=CCNc1nc(N)c(C(=O)c2ccc(F)s2)s1 [TT-10, (2-(allylamino)-4-aminothiazol-5-yl)(5-fluorothiophen-2-yl)methanone]
[1]
  phosphorylated Yap (p-Yap) abundance (Western blot): less abundant
  total Yap levels (Western blot): similar
[2]
  cardiomyocyte survival and proliferation: promoted
[3]
  proportion of cells displaying Aurora B (cytokinesis): peaked at 10 to 20 μM TT-10
  proportion of cells displaying BrdU incorporation (S phase): peaked at 10 to 20 μM TT-10
  proportion of cells displaying Ki67 (cell proliferation): peaked at 10 to 20 μM TT-10
  proportion of cells displaying histone 3 phosphorylation PH3 (M phase): peaked at 10 to 20 μM TT-10
[4]
  hiPSC-CM apoptosis (TUNEL staining): significantly reduced
[5]
  cardiac function at later time points: did not prevent progressive declines
  cardiomyocyte cell cycle activity: promoted
  infarct size: declines in infarct size; also recorded: reduced
  measures of cardiac function vs delivery vehicle: significantly better
[6]
  proportion of hiPSC-CMs with Yap-positive nuclei: significantly increased
